Source: ChEMBL document CHEMBL1649094, “First Selective CYP11B1 Inhibitors for the Treatment of Cortisol-Dependent Diseases” (ACS Med Chem Lett, 2011)

Columns and labels:
[1] = target: T1, Cytochrome P450 11B1, mitochondrial (Homo sapiens, UniProt P15538); experiment: Inhibition of human CYP11B1 expressed in hamster V79MZ cells using 11-deoxycorticosterone substrate; type: cell-based
T1 sequence (P15538 whole entry): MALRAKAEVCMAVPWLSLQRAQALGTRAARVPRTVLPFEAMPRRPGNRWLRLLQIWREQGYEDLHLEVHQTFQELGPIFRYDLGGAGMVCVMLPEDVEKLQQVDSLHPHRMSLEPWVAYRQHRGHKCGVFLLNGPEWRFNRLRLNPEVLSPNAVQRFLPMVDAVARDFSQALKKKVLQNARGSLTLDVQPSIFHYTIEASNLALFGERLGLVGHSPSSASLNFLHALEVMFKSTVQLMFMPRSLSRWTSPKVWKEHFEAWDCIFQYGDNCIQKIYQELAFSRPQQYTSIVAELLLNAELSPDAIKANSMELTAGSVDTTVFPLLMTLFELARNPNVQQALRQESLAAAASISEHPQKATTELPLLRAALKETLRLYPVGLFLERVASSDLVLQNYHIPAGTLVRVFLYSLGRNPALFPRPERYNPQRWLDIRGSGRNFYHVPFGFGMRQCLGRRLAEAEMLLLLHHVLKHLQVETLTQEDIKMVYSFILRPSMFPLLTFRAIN

[2] = target: T2, Cytochrome P450 11B2, mitochondrial (Homo sapiens, UniProt P19099); experiment: Inhibition of human CYP11B2 expressed in hamster V79MZ cells using 11-deoxycorticosterone substrate; type: cell-based
T2 sequence (P19099 whole entry): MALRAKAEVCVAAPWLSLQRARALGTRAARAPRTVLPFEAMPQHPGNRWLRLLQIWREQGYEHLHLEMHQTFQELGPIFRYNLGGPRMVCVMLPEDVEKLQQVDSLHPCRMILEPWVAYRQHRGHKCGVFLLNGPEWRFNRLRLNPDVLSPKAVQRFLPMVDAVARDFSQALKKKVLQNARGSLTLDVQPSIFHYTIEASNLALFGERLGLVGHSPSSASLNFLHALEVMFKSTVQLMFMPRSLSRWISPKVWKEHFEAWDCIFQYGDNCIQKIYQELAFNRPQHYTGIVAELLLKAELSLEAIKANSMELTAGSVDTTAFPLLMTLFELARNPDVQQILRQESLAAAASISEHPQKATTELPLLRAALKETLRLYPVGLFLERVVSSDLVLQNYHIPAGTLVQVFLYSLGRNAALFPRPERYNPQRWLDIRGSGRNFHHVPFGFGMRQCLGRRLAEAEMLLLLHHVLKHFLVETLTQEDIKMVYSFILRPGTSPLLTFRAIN

Homo sapiens = species: Homo sapiens; experiment: Selectivity index, ratio of IC50 for human CYP11B2 to IC50 for human CYP11B1
CYP17 = target: T3, CYP17 (Homo sapiens, UniProt P05093); experiment: Inhibition of human recombinant CYP17 expressed in Escherichia coli at 2 uM using progesterone substrate; details: recombinant human CYP17 expressed in Escherichia coli, probe progesterone
T3 sequence (P05093 whole entry): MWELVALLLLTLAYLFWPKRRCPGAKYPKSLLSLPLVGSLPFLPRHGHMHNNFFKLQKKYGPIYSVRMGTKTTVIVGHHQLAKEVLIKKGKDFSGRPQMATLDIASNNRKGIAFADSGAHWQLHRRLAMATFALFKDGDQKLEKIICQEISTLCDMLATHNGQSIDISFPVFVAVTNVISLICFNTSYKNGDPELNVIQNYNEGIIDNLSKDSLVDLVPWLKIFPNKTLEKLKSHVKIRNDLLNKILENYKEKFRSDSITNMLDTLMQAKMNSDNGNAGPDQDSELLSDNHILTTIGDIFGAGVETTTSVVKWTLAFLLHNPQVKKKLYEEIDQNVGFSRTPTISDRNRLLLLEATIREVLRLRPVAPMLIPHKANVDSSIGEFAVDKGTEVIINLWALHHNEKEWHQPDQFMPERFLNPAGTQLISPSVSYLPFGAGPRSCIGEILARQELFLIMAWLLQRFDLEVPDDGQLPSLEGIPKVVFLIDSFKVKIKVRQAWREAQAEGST

CYP19 (aromatase) = target: T4, CYP19 (aromatase) (Homo sapiens, UniProt P11511); experiment: Inhibition of human placental microsomes CYP19 at 500 nM using androstenedione substrate; details: human placental microsomes, probe androstenedione
T4 sequence (P11511 whole entry): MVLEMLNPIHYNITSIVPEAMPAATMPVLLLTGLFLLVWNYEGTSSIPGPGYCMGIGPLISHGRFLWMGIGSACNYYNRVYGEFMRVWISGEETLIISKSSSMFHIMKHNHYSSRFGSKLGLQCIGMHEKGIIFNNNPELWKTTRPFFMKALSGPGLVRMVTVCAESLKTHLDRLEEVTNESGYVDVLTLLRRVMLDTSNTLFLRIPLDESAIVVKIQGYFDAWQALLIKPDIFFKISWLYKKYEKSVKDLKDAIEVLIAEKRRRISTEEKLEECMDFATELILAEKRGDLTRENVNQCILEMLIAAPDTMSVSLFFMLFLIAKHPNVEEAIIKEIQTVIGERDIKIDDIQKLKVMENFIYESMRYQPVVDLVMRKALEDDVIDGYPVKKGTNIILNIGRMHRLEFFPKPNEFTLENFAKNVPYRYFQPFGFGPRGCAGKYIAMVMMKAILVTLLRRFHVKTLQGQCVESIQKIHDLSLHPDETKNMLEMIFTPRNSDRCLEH

| IC50 [1] [nM] | IC50 [2] [nM] | Ratio IC50 (Homo sapiens) | inhibition at 2 µM (CYP17) [%] | inhibition at 0.5 µM (CYP19 (aromatase)) [%] | Structure (SMILES) |
| --- | --- | --- | --- | --- | --- |
| 128 | 332 | 2.6 | 52 | 12 | c1ccc(-c2cc(Cn3ccnc3)cc(-c3ccccc3)c2)cc1 |
| 43 | 353 | 8.2 | 21 | 12 | c1ccc(-c2ccc(Cn3ccnc3)s2)cc1 |
